Measured values published in patent publication US5891842A, “Methodology for eliciting an analgesic response in a living subject” (priority 1996, dated 1999).
Where two headings read alike, the source gives them in different places.

Legend:
[1] = cited from earlier work
[2] = oral, antitussive doses, cited from earlier work; for DOSE (figures in parentheses): not necessarily equieffective
[3] = tested on: Adult male Sprague-Dawley rats; assay: Tail-flick analgesic testing after intrathecal administration; type: in vivo, rat
[4] = tested on: rats with spinal cord transection; assay: Tail-flick analgesic testing after intrathecal administration, acutely transected spinal cord; type: in vivo, rat; details: 0.2 ug MS alone
[5] = 10 mg/70 kg body weight; cited from earlier work
[6] = intrathecal administration of morphine; cited from earlier work
[7] = analgesic effects after subcutaneous administration

| SMILES | DURATION OF ACTION [1, 7] [h] | DOSE: amount given subcutaneously that produces approximately the same analgesic effects as 10 mg of morphine ([1]; in vivo, sc) | other results |
| --- | --- | --- | --- |
| CCC(=O)OC1(c2ccccc2)CCN(C)CC1C (stereo not shown) [Alphaaprodine, Alphaprodine] | 1 to 2 | 40 |  |
| COc1ccc2c3c1O[C@H]1[C@@H](O)C=C[C@H]4[C@@H](C2)N(C)CC[C@@]341 [Codeine] |  | 120 | DURATION OF ACTION (figures in parentheses) [2]: 4 to 6 h; DOSE (figures in parentheses) [2]: 10 to 20 mg |
| C[C@H](CN1CCOCC1)C(C(=O)N1CCCC1)(c1ccccc1)c1ccccc1 [Dextromoramide] | 4 to 5 | 5-7.5 |  |
| CCC(=O)C(CC(C)N1CCCCC1)(c1ccccc1)c1ccccc1 (stereo not shown) [Dipipanone] | 4 to 5 | 20-25 |  |
| COc1ccc2c3c1O[C@H]1[C@@H](O)CC[C@H]4[C@@H](C2)N(C)CC[C@@]341 [Drocode, dihydrocodeine] | 4 to 5 | 60 |  |
| CC(=O)Oc1ccc2c3c1O[C@H]1[C@@H](OC(C)=O)C=C[C@H]4[C@@H](C2)N(C)CC[C@@]341 [Heroin, diacetylmorphine] | 3 to 4 | 4 | DOSE (figures in parentheses) [2]: 2 to 8 mg |
| COc1ccc2c3c1O[C@H]1C(=O)CC[C@H]4[C@@H](C2)N(C)CC[C@]314 [Hyrocodone, dihydrocodeinone] |  |  | DURATION OF ACTION (figures in parentheses) [2]: 4 to 8 h; DOSE (figures in parentheses) [2]: 5 to 10 mg |
| CN1CC[C@]23CCCC[C@H]2[C@H]1Cc1ccc(O)cc13 [Levorphanol] | 4 to 5 | 2 |  |
| CN1CC[C@]23c4c5ccc(O)c4O[C@H]2[C@@H](O)C=C[C@H]3[C@H]1C5.O=S(=O)(O)O [MS, morphine sulphate] |  |  | analgesic response ([3]; 0.02 ug MS alone, intrathecal): weak response; analgesic response, peak ([3]; 0.1 ug MS alone, intrathecal): approximately 30 % MPE; analgesic response ([3]; 0.5 ug MS alone, intrathecal): maximal analgesic response between 5 and 30 min; declined to baseline ([3]; 0.5 ug MS alone, intrathecal): 60 min; analgesic response [4]: modest analgesic response |
| CCOC(=O)C1(c2ccccc2)CCN(C)CC1 [Meperidine] | 2 to 4 | 75-100 |  |
| CCC(=O)C(CC(C)N(C)C)(c1ccccc1)c1ccccc1 (stereo not shown) [Methadone] | 3 to 5 | 8-10 |  |
| CN1CC[C@]23c4c5ccc(O)c4O[C@H]2[C@@H](O)C=C[C@H]3[C@H]1C5 [Morphine] |  | 10 | DURATION OF ACTION ([1]; in vivo, sc): 4-5; relieves post-operative pain satisfactorily (share of patients) [5]: about two-thirds; effect on hyperalgesia of administered substance P [6]: blocks the hyperalgesic effects |
| COc1ccc2c3c1O[C@H]1C(=O)CC[C@@]4(O)[C@@H](C2)N(C)CC[C@]314 [Oxycodone, dihydrohydroxycodeinone] | 4 to 5 | 10-15 |  |
| CN1CC[C@]23c4c5ccc(O)c4O[C@H]2C(=O)CC[C@@]3(O)[C@H]1C5 [Oxymorphone, dihydrohydroxymorphinone] | 4 to 5 | 1.0-1.5 |  |
| CCC(=O)C(CC(C)N1CCOCC1)(c1ccccc1)c1ccccc1 (stereo not shown) [Phenadoxone] | 1 to 3 | 10-20 |  |
| CN1CC[C@]23c4c5ccc(OCCN6CCOCC6)c4O[C@H]2[C@@H](O)C=C[C@H]3[C@H]1C5 [Pholcodine, β-morpholinylethylmorphine] |  |  | DURATION OF ACTION (figures in parentheses) [2]: 4 to 5 h; DOSE (figures in parentheses) [2]: 5 to 15 mg |
| C=CCN1CC[C@]23c4c5ccc(O)c4O[C@H]2C(=O)CC[C@@]3(O)[C@H]1C5 [naloxone] |  |  | analgesic response produced by MS in combination with SP after naloxone pretreatment ([3]; naloxone 1.0 ug intrathecal 10 min prior to 0.1 ug MS + 10 pmol SP): essentially eliminated |
